Literature values, collected in patent publication US9981058B2, “Balloon surface coating” (CARDIONOVUM Sp.z.o.o., priority 2011, dated 2018).
Like-named read-outs stand apart in the source and are kept apart here.

In the case of `CC(=O)O[C@H]1C(=O)[C@@]2(C)[C@H]([C@H](OC(=O)c3ccccc3)[C@]3(O)C[C@H](OC(=O)[C@H](O)[C@@H](NC(=O)c4ccccc4)c4ccccc4)C(C)=C1C3(C)C)[C@]1(OC(C)=O)CO[C@@H]1C[C@@H]2O` (relative stereo) [Paclitaxel, [2aR-[2a,4,4a,6,9(R*,S*),11, 12,12a,12b]]-(benzoylamino)-hydroxybenzene propionic acid 6,12b-bis-(acetyloxy)-12-(benzoyloxy)-2a-3,4,4a,5,6,9, 10, 11, 12, 12a,12b-dodecahydro-4, 11-dihydroxy-4a,8,13,13-tetramethyl-5-oxo-7,11-methano-1H-cyclodeca[3,4]benz[1,2-b]oxet-9-yl ester)], the Solubility (in dimethyl sulfoxide (DMSO), methanol and anhydrous ethanol) is given as “highly soluble” and the Solubility (in water) is given as “comparatively poorly soluble”.
